Test results from US11839683B2, “Method of rapidly achieving therapeutic concentrations of triptans for treatment of migraines” (EMERGEX USA CORPORATION, priority 2016, dated 2023).
Like-named read-outs stand apart in the source and are kept apart here.

Tests used:
clinical = conditions: both, human, in vivo; for AUC(0-inf): AUCinf
Experimental: The final treatment administered was 3.8 mg on a 10 cm^2 patch using an applicator with 0.52 Joule of application energy in the intracutaneous microneedle system described herein. The products tested were:
This was a single-center, open-label, randomized five-way crossover study (Part 1) followed by a sequential study of two additional treatments (Parts 2 and 3). After obtaining informed consent and establishing eligibility, each subject received each of the seven study treatments once, followed by in-clinic monitoring and extensive blood sample collection for pharmacokinetic analysis. […] Plasma samples from the initial dosing days were sent to the analytical laboratory for analysis, and tolerability for each of the dose levels was summarized. […] During Part 3, subjects received a single 3.8 mg patch (applied with a 0.52 J applicator) and also completed identical procedures to the previous dosing days. After completion of the seven dosing days, subjects were assessed one final time and dismissed from the study.
Twenty subjects were enrolled in the study, 10 males and 10 females. The subjects mean age was 29 years±3.5 years with a mean BMI of 24.4±3.5.
PK parameters were summarized by treatment group using descriptive statistics (arithmetic means, standard deviations, coefficients of variation, sample size, minimum, maximum, and median).
Graphs of apparent dose linearity and proportionality of PK parameters (AUCt, AUCinf and Cmax) were compiled.

migraine = conditions: cited from earlier work
[1] = In vitro dissolution, USP Paddle over Disk apparatus (USP apparatus 5); assay type: physicochemical; conditions: M207 1.9 mg patch
Experimental: In vitro dissolution of […] 1.9 mg patches were evaluated using standard USP Paddle over Disk apparatus (USP apparatus 5) with Distek […] 6-position dissolution tester. The paddle height was set at 25 mm above patch and rotated at 50 RPM. An USP vessel was filled with degassed 500 mL PBS dissolution medium and the temperature was controlled at 32° C. A full patch assembly containing the coated patch adhered to the center of an inner ring and then attached to an outer ring was inserted along the vessel wall into the vessel with the coated microprojections facing upright. […] […] patches stored at room temperature and at 40° C./75% relative humidity for 10 months were evaluated.

[2] = 10 mg oral, Seaber1997, cited from earlier work
[3] = NASAL 2.5 mg, 1 hour, Charlesworth et al, 2003
[4] = NASAL 2.5 mg, 2 hour, Charlesworth et al, 2003
[5] = NASAL 2.5 mg, 4 hour, Charlesworth et al, 2003
[6] = ODT 2.5 mg, 1 hour, Dowson et al, 2002
[7] = ODT 2.5 mg, 2 hour, Dowson et al, 2002
[8] = TABLET 2.5 mg, 1 hour, Pascual et al, 2000
[9] = TABLET 2.5 mg, 1 hour, Steiner et al, 2003
[10] = TABLET 2.5 mg, 2 hour, Pascual et al, 2000
[11] = TABLET 2.5 mg, 2 hour, Steiner et al, 2003
[12] = TABLET 5 mg, 1 hour, Dahlof et al 1998
[13] = TABLET 5 mg, 1 hour, Geraud et al, 2000
[14] = TABLET 5 mg, 2 hour, Dahlof et al 1998
[15] = TABLET 5 mg, 2 hour, Geraud et al, 2000
[16] = TABLET 5 mg, 4 hour, Geraud et al, 2000
[17] = TABLET 10 mg, 1 hour, Dahlof et al 1998
[18] = TABLET 10 mg, 2 hour, Dahlof et al 1998

CN(C)CCc1c[nH]c2ccc(C[C@H]3COC(=O)N3)cc12 [Zolmitriptan, zolmitriptan]
Tmax, Mean (SD) (clinical): 17.10 (11.82)
Tmax, Median (clinical): 17.5 min
t1/2, Mean (SD) (clinical): 91.70 (18.7)
t1/2, Median (clinical): 96.2 min
AUC(0-t) (clinical; 0.48 mg, AUC2 hrs, Mean (SD)): 2.11 ng·h/mL
AUC(0-t) (clinical; 0.48 mg, AUC2 hrs, Median): 2.11 ng·h/mL
AUC(0-inf) (clinical; 0.48 mg, Mean (SD)): 3.81 ng·h/mL
AUC(0-inf) (clinical; 0.48 mg, Median): 3.78 ng·h/mL
AUC(0-t) (clinical; 0.48 mg, AUCt, Mean (SD)): 2.81 ng·h/mL
AUC(0-t) (clinical; 0.48 mg, AUCt, Median): 2.78 ng·h/mL
Cmax (clinical; 0.48 mg, Mean (SD)): 1.84 ng/mL
Cmax (clinical; 0.48 mg, Median): 1.8 ng/mL
Tmax (clinical; 0.48 mg, Tmax, Mean (SD)): 17.3 min
Tmax (clinical; 0.48 mg, Tmax, Median): 20 min
half-life (clinical; 0.48 mg, t1/2, Mean (SD)): 69.1 min
half-life (clinical; 0.48 mg, t1/2, Median): 64.6 min
AUCinf, Median (clinical; 1.9 mg): 14.5 ng·h/mL
AUC(0-t) (clinical; 1.9 mg, AUC2 hrs, Mean (SD)): 7.36 ng·h/mL
AUC(0-t) (clinical; 1.9 mg, AUC2 hrs, Median): 7.75 ng·h/mL
AUC(0-inf) (clinical; 1.9 mg, Mean (SD)): 14.1 ng·h/mL
AUC(0-t) (clinical; 1.9 mg, AUCt, Mean (SD)): 12.3 ng·h/mL
AUC(0-t) (clinical; 1.9 mg, AUCt, Median): 12.7 ng·h/mL
Cmax (clinical; 1.9 mg, Mean (SD)): 6.76 ng/mL
Cmax (clinical; 1.9 mg, Median): 6.4 ng/mL
Tmax (clinical; 1.9 mg, Tmax, Mean (SD)): 17.9 min
Tmax (clinical; 1.9 mg, Tmax, Median): 20 min
half-life (clinical; 1.9 mg, t1/2, Mean (SD)): 87.8 min
half-life (clinical; 1.9 mg, t1/2, Median): 84.7 min
t1/2, Mean (SD) (clinical; 3.8 mg): 91.00 (18.80)
AUC(0-t) (clinical; 3.8 mg, AUC2 hrs, Mean (SD)): 19.3 ng·h/mL
AUC(0-t) (clinical; 3.8 mg, AUC2 hrs, Median): 18.4 ng·h/mL
AUC(0-inf) (clinical; 3.8 mg, Mean (SD)): 33.8 ng·h/mL
AUC(0-inf) (clinical; 3.8 mg, Median): 32.2 ng·h/mL
AUC(0-t) (clinical; 3.8 mg, AUCt, Mean (SD)): 31.6 ng·h/mL
AUC(0-t) (clinical; 3.8 mg, AUCt, Median): 29.9 ng·h/mL
Cmax (clinical; 3.8 mg, Mean (SD)): 22.6 ng/mL
Cmax (clinical; 3.8 mg, Median): 19.9 ng/mL
Tmax (clinical; 3.8 mg, Tmax, Mean (SD)): 16.1 min
Tmax (clinical; 3.8 mg, Tmax, Median): 15 min
half-life (clinical; 3.8 mg, t1/2, Median): 87.2 min
Tmax (clinical; Tmax, Mean (SD)): 18.4 min
Tmax (clinical; Tmax, Median): 20 min
Tmax (clinical; mean Tmax): 16.1 to 18.4 min
Cmax (clinical; po, 2.5 mg, Median): 3.7 ng/mL
half-life (clinical; t1/2, Mean (SD)): 77.2 min
half-life (clinical; t1/2, Median): 82 min
% PAIN FREE (migraine; [3]): 10.6%
% PAIN RELIEF (migraine; [3]): 40.2%
% PAIN FREE (migraine; [4]): 21.0%
% PAIN RELIEF (migraine; [4]): 55.4%
% PAIN FREE (migraine; [5]): 38.4%
% PAIN RELIEF (migraine; [5]): 63.4%
% PAIN FREE (migraine; [6]): 7.8%
% PAIN RELIEF (migraine; [6]): 45.0%
% PAIN FREE (migraine; [7]): 27.0%
% PAIN RELIEF (migraine; [7]): 63.0%
% PAIN FREE (migraine; ODT 2.5 mg, 4 hour, Dowson et al, 2002): 37.0%
% PAIN FREE (migraine; [8]): 10.4%
% PAIN RELIEF (migraine; [8]): 35.3%
% PAIN FREE (migraine; [9]): 5.7%
% PAIN RELIEF (migraine; [9]): 25.1%
% PAIN FREE (migraine; [10]): 35.6%
% PAIN RELIEF (migraine; [10]): 66.8%
% PAIN FREE (migraine; [11]): 26.3%
% PAIN RELIEF (migraine; [11]): 59.6%
% PAIN RELIEF (migraine; TABLET 2.5 mg, 4 hour, Steiner et al, 2003): 25.1%
% PAIN FREE (migraine; [12]): 10.0%
% PAIN RELIEF (migraine; [12]): 44.0%
% PAIN FREE (migraine; [13]): 7.8%
% PAIN RELIEF (migraine; [13]): 34.2%
% PAIN FREE (migraine; [14]): 39.0%
% PAIN RELIEF (migraine; [14]): 66.0%
% PAIN FREE (migraine; [15]): 29.3%
% PAIN RELIEF (migraine; [15]): 58.7%
% PAIN FREE (migraine; [16]): 54.6%
% PAIN RELIEF (migraine; [16]): 80.5%
% PAIN FREE (migraine; [17]): 9.0%
% PAIN RELIEF (migraine; [17]): 40.0%
% PAIN FREE (migraine; [18]): 39.0%
% PAIN RELIEF (migraine; [18]): 71.0%
pain freedom at 2 hours (migraine; lowest oral dose): 29%
pain relief at 2 hours (migraine; lowest oral dose): 62%
Percent Dissolution (% D) ([1]; E-beam irradiated, stored at 40° C./75% RH for 10 months, 0 s): 0%
Percent Dissolution (% D) ([1]; E-beam irradiated, stored at 40° C./75% RH for 10 months, 20 s): 5-10%
Percent Dissolution (% D) ([1]; E-beam irradiated, stored at 40° C./75% RH for 10 months, 40 s): 10-50%
Percent Dissolution (% D) ([1]; E-beam irradiated, stored at 40° C./75% RH for 10 months, 60 s): 50-100%
Percent Dissolution (% D) ([1]; E-beam irradiated, stored at 40° C./75% RH for 10 months, 80 s): 100%
Percent Dissolution (% D) ([1]; E-beam irradiated, stored at 40° C./75% RH for 10 months, 100 s): 100%
Percent Dissolution (% D) ([1]; E-beam irradiated, stored at RT for 10 months, 0 s): 0%
Percent Dissolution (% D) ([1]; E-beam irradiated, stored at RT for 10 months, 20 s): 60-80%
Percent Dissolution (% D) ([1]; E-beam irradiated, stored at RT for 10 months, 40 s): 90-100%
Percent Dissolution (% D) ([1]; E-beam irradiated, stored at RT for 10 months, 60 s): 100%
Percent Dissolution (% D) ([1]; E-beam irradiated, stored at RT for 10 months, 80 s): 100%
Percent Dissolution (% D) ([1]; E-beam irradiated, stored at RT for 10 months, 100 s): 100%
Percent Dissolution (% D) ([1]; non-irradiated, stored at 40° C./75% RH for 10 months, 0 s): 0%
Percent Dissolution (% D) ([1]; non-irradiated, stored at 40° C./75% RH for 10 months, 20 s): 0%
Percent Dissolution (% D) ([1]; non-irradiated, stored at 40° C./75% RH for 10 months, 40 s): 10-40%
Percent Dissolution (% D) ([1]; non-irradiated, stored at 40° C./75% RH for 10 months, 60 s): 90-100%
Percent Dissolution (% D) ([1]; non-irradiated, stored at 40° C./75% RH for 10 months, 80 s): 100%
Percent Dissolution (% D) ([1]; non-irradiated, stored at 40° C./75% RH for 10 months, 100 s): 100%
AUC0-last ([2]; (F)): 108.6 ng·h/mL
Cmax ([2]; (F)): 20.9 ng/mL
AUC0-last ([2]; (M)): 84.4 ng·h/mL
Cmax ([2]; (M)): 16.6 ng/mL
